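Cells were grown in 96-well plates and exposed to each compound for 48 hours at five concentrations; endpoints were interpolated linearly between bracketing concentrations, or set to the highest concentration if not reached. The concentration for full growth arrest is given as TGI.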
What was measured:
Experiment in all cases: NCI tumour cell line growth inhibition, 48 h
786-0 renal = tested on: 786-0 renal
A549 NSCLC = tested on: A549 NSCLC
ACHN renal = tested on: ACHN renal
CAKI-1 renal = tested on: CAKI-1 renal
CCRF-CEM leukemia = tested on: CCRF-CEM leukemia
COLO 205 colon = tested on: COLO 205 colon
DMS 114 small cell lung = tested on: DMS 114 small cell lung
DMS 273 small cell lung = tested on: DMS 273 small cell lung
EKVX NSCLC = tested on: EKVX NSCLC
HCC-2998 colon = tested on: HCC-2998 colon
HCT-116 colon = tested on: HCT-116 colon
HCT-15 colon = tested on: HCT-15 colon
HL-60(TB) leukemia = tested on: HL-60(TB) leukemia
HOP-18 NSCLC = tested on: HOP-18 NSCLC
HOP-62 NSCLC = tested on: HOP-62 NSCLC
HOP-92 NSCLC = tested on: HOP-92 NSCLC
HT29 colon = tested on: HT29 colon
IGROV1 ovarian = tested on: IGROV1 ovarian
KM12 colon = tested on: KM12 colon
KM20L2 colon = tested on: KM20L2 colon
LOX IMVI melanoma = tested on: LOX IMVI melanoma
LXFL 529 NSCLC = tested on: LXFL 529 NSCLC
M14 melanoma = tested on: M14 melanoma
M19-MEL melanoma = tested on: M19-MEL melanoma
MALME-3M melanoma = tested on: MALME-3M melanoma
MOLT-4 leukemia = tested on: MOLT-4 leukemia
NCI-H23 lung = tested on: NCI-H23 lung
NCI-H460 lung = tested on: NCI-H460 lung
NCI-H522 lung = tested on: NCI-H522 lung
OVCAR-3 ovarian = tested on: OVCAR-3 ovarian
OVCAR-4 ovarian = tested on: OVCAR-4 ovarian
OVCAR-8 ovarian = tested on: OVCAR-8 ovarian
RXF-631 renal = tested on: RXF-631 renal
SF-268 CNS = tested on: SF-268 CNS
SF-295 CNS = tested on: SF-295 CNS
SF-539 CNS = tested on: SF-539 CNS
SK-MEL-28 melanoma = tested on: SK-MEL-28 melanoma
SK-MEL-5 melanoma = tested on: SK-MEL-5 melanoma
SK-OV-3 ovarian = tested on: SK-OV-3 ovarian
SN12C renal = tested on: SN12C renal
SNB-19 CNS = tested on: SNB-19 CNS
SNB-75 CNS = tested on: SNB-75 CNS
SR leukemia = tested on: SR leukemia
SW-620 colon = tested on: SW-620 colon
TK-10 renal = tested on: TK-10 renal
UACC-257 melanoma = tested on: UACC-257 melanoma
UACC-62 melanoma = tested on: UACC-62 melanoma
UO-31 renal = tested on: UO-31 renal
A498 renal = tested on: A498 renal
DLD-1 colon = tested on: DLD-1 colon
K-562 leukemia = tested on: K-562 leukemia
NCI-H226 lung = tested on: NCI-H226 lung
OVCAR-5 ovarian = tested on: OVCAR-5 ovarian
RPMI-8226 leukemia = tested on: RPMI-8226 leukemia
RXF 393 renal = tested on: RXF 393 renal
SK-MEL-2 melanoma = tested on: SK-MEL-2 melanoma
SNB-78 CNS = tested on: SNB-78 CNS
U251 CNS = tested on: U251 CNS

O=C(Nc1nc(=S)[nH][nH]1)C(=O)C1C(=O)Nc2ccccc2S1=O (stereo not given)
TGI (786-0 renal): > 100 µM | TGI (A549 NSCLC): > 100 µM | TGI (ACHN renal): > 100 µM | TGI (CAKI-1 renal): > 100 µM | TGI (CCRF-CEM leukemia): > 100 µM | TGI (COLO 205 colon): > 100 µM | TGI (DMS 114 small cell lung): > 100 µM | TGI (DMS 273 small cell lung): > 100 µM | TGI (EKVX NSCLC): > 100 µM | TGI (HCC-2998 colon): > 100 µM | TGI (HCT-116 colon): > 100 µM | TGI (HCT-15 colon): > 100 µM | TGI (HL-60(TB) leukemia): > 100 µM | TGI (HOP-18 NSCLC): > 100 µM | TGI (HOP-62 NSCLC): > 100 µM | TGI (HOP-92 NSCLC): > 100 µM | TGI (HT29 colon): > 100 µM | TGI (IGROV1 ovarian): > 100 µM | TGI (KM12 colon): > 100 µM | TGI (KM20L2 colon): > 100 µM | TGI (LOX IMVI melanoma): > 100 µM | TGI (LXFL 529 NSCLC): > 100 µM | TGI (M14 melanoma): > 100 µM | TGI (M19-MEL melanoma): > 100 µM | TGI (MALME-3M melanoma): > 100 µM | TGI (MOLT-4 leukemia): > 100 µM | TGI (NCI-H23 lung): > 100 µM | TGI (NCI-H460 lung): > 100 µM | TGI (NCI-H522 lung): > 100 µM | TGI (OVCAR-3 ovarian): > 100 µM | TGI (OVCAR-4 ovarian): > 100 µM | TGI (OVCAR-8 ovarian): > 100 µM | TGI (RXF-631 renal): > 100 µM | TGI (SF-268 CNS): > 100 µM | TGI (SF-295 CNS): > 100 µM | TGI (SF-539 CNS): > 100 µM | TGI (SK-MEL-28 melanoma): > 100 µM | TGI (SK-MEL-5 melanoma): > 100 µM | TGI (SK-OV-3 ovarian): > 100 µM | TGI (SN12C renal): > 100 µM | TGI (SNB-19 CNS): > 100 µM | TGI (SNB-75 CNS): > 100 µM | TGI (SR leukemia): > 100 µM | TGI (SW-620 colon): > 100 µM | TGI (TK-10 renal): > 100 µM | TGI (UACC-257 melanoma): > 100 µM | TGI (UACC-62 melanoma): > 100 µM | TGI (UO-31 renal): > 100 µM

COc1ccc(SS(=O)(=O)c2ccc(OC)cc2)cc1
TGI (786-0 renal): 32.7 µM | TGI (A498 renal): 37 µM | TGI (A549 NSCLC): 69.2 µM | TGI (ACHN renal): 33.1 µM | TGI (CAKI-1 renal): 43.3 µM | TGI (CCRF-CEM leukemia): 10.2 µM | TGI (COLO 205 colon): 33.2 µM | TGI (DLD-1 colon): 52.3 µM | TGI (DMS 114 small cell lung): 30.6 µM | TGI (EKVX NSCLC): 71.6 µM | TGI (HCC-2998 colon): 29.8 µM | TGI (HCT-116 colon): 30.3 µM | TGI (HCT-15 colon): > 100 µM | TGI (HL-60(TB) leukemia): 7.81 µM | TGI (HOP-18 NSCLC): 48.3 µM | TGI (HOP-62 NSCLC): 50.9 µM | TGI (HOP-92 NSCLC): 60.4 µM | TGI (HT29 colon): 64.1 µM | TGI (IGROV1 ovarian): 24.4 µM | TGI (K-562 leukemia): 47 µM | TGI (KM12 colon): 30.7 µM | TGI (KM20L2 colon): 38 µM | TGI (LOX IMVI melanoma): 31.8 µM | TGI (LXFL 529 NSCLC): 34.4 µM | TGI (M14 melanoma): 41.6 µM | TGI (M19-MEL melanoma): 46.4 µM | TGI (MALME-3M melanoma): 80.4 µM | TGI (MOLT-4 leukemia): 47.8 µM | TGI (NCI-H226 lung): 50.1 µM | TGI (NCI-H23 lung): 49.1 µM | TGI (NCI-H460 lung): 83.9 µM | TGI (NCI-H522 lung): 29.2 µM | TGI (OVCAR-3 ovarian): 33.8 µM | TGI (OVCAR-5 ovarian): 76.4 µM | TGI (OVCAR-8 ovarian): 31.9 µM | TGI (RPMI-8226 leukemia): 75.4 µM | TGI (RXF 393 renal): 32.3 µM | TGI (RXF-631 renal): > 100 µM | TGI (SF-268 CNS): 32.9 µM | TGI (SF-295 CNS): 39.3 µM | TGI (SF-539 CNS): 34 µM | TGI (SK-MEL-2 melanoma): 87.5 µM | TGI (SK-MEL-28 melanoma): 40.1 µM | TGI (SK-MEL-5 melanoma): 33 µM | TGI (SK-OV-3 ovarian): 69.4 µM | TGI (SN12C renal): 36.7 µM | TGI (SNB-19 CNS): 65 µM | TGI (SNB-75 CNS): 45.5 µM | TGI (SNB-78 CNS): > 100 µM | TGI (SR leukemia): 61.4 µM | TGI (SW-620 colon): 18.1 µM | TGI (TK-10 renal): 50.2 µM | TGI (U251 CNS): 27.6 µM | TGI (UACC-257 melanoma): 49.4 µM | TGI (UACC-62 melanoma): 38.5 µM | TGI (UO-31 renal): 27.2 µM

CC(C)[C@@H](C)CC[C@@H](C)C1CC=C2[C@@H]3CCC4C[C@@H](O[Si](C)(C)C(C)(C)C)CC[C@]4(C)C3CC[C@@]21C (stereo not given in full)
TGI (786-0 renal): > 100 µM | TGI (A498 renal): > 100 µM | TGI (A549 NSCLC): > 100 µM | TGI (ACHN renal): > 100 µM | TGI (CAKI-1 renal): > 100 µM | TGI (CCRF-CEM leukemia): > 100 µM | TGI (COLO 205 colon): > 100 µM | TGI (DMS 114 small cell lung): > 100 µM | TGI (DMS 273 small cell lung): > 100 µM | TGI (EKVX NSCLC): > 100 µM | TGI (HCC-2998 colon): > 100 µM | TGI (HCT-116 colon): > 100 µM | TGI (HCT-15 colon): > 100 µM | TGI (HL-60(TB) leukemia): > 100 µM | TGI (HOP-18 NSCLC): > 100 µM | TGI (HOP-62 NSCLC): > 100 µM | TGI (IGROV1 ovarian): > 100 µM | TGI (K-562 leukemia): > 100 µM | TGI (KM12 colon): > 100 µM | TGI (KM20L2 colon): > 100 µM | TGI (LXFL 529 NSCLC): > 100 µM | TGI (M14 melanoma): > 100 µM | TGI (M19-MEL melanoma): > 100 µM | TGI (MALME-3M melanoma): > 100 µM | TGI (MOLT-4 leukemia): > 100 µM | TGI (NCI-H226 lung): > 100 µM | TGI (NCI-H460 lung): > 100 µM | TGI (NCI-H522 lung): > 100 µM | TGI (OVCAR-3 ovarian): > 100 µM | TGI (OVCAR-4 ovarian): > 100 µM | TGI (OVCAR-8 ovarian): > 100 µM | TGI (RPMI-8226 leukemia): > 100 µM | TGI (RXF 393 renal): > 100 µM | TGI (RXF-631 renal): > 100 µM | TGI (SF-268 CNS): > 100 µM | TGI (SF-539 CNS): > 100 µM | TGI (SK-MEL-2 melanoma): > 100 µM | TGI (SK-MEL-28 melanoma): > 100 µM | TGI (SK-MEL-5 melanoma): > 100 µM | TGI (SK-OV-3 ovarian): > 100 µM | TGI (SN12C renal): > 100 µM | TGI (SNB-19 CNS): > 100 µM | TGI (SNB-75 CNS): > 100 µM | TGI (SNB-78 CNS): > 100 µM | TGI (SR leukemia): > 100 µM | TGI (SW-620 colon): > 100 µM | TGI (TK-10 renal): > 100 µM | TGI (U251 CNS): > 100 µM | TGI (UACC-257 melanoma): > 100 µM | TGI (UACC-62 melanoma): > 100 µM | TGI (UO-31 renal): > 100 µM
